In the data set the test system is human (tumor) Hif2α (EPAS1) mRNA. Put plainly: Hif2α knockdown in orthotopic RCC tumor bearing mice, single injection of RNAi trigger-delivery polymer conjugate, RT-qPCR (Table 7). The class given is in vivo. To be noted: single tail vein injection, relative to isotonic glucose. Put shortly:
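A single intravenous dose of Hif2α RNAi trigger–delivery polymer conjugate, or isotonic glucose vehicle, was given to nude mice with subcapsular A498-SEAP renal tumours (about 5–6 weeks old). At the indicated time, tumour RNA was assayed by biplex TaqMan qPCR against CycA, and relative expression was calculated by ΔΔCT versus vehicle.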

[1] abbreviates: RNAi trigger 80 μg, polymer 126 400 μg.
Where [2] appears, read: RNAi trigger 75 μg, polymer 064 187.5 μg.
[3] abbreviates: RNAi trigger 100 μg, polymer 064 250 μg.
Setting [4] is: RNAi trigger 50 μg, polymer 064 125 μg.

Where “and” joins values, the source holds several entries; their conditions need not be identical. Identical values can stand only once.

“AD01258 (antisense TUUCAUGAAAUCGUUACGUTT; sense ACGUAACGAUUUCAUGAAAT; Hif2alpha RNAi agent antisense strand; modified_base 2,4,6,8,10,12,14,16,18 /mod_base = “2′-deoxy-2′-fluoro corresponding nucleoside”; modified_base 3,5,7,9,11,13,17,19 /mod_base = “2′-O-methyl corresponding nucleoside”; modified_base 15 /mod_base = “2′-3′ seco corresponding nucleotide”; modified_base 21 /mod_base = “5′-phosphorothioate corresponding nucleotide”; Hif2alpha RNAi agent sense strand; modified_base 1,3,5,7,9,11,13,15,17,19 /mod_base = “2′-deoxy-2′-fluoro corresponding nucleoside”; modified_base 2,4,6,8,10,12,14,16,18 /mod_base = “2′-O-methyl corresponding nucleoside”; modified_b)”: the “Relative Expression day 4 (Hif2α mRNA in kidney tumor)” value under setting [1] turned out to be 0.38.

With “AD02733 (antisense UUUCAUGAAAUCGUUACGUUG; sense ACGUAACGAUUUCAUGAAAT; Hif2alpha RNAi agent antisense strand; modified_base 2,4,6,8,10 /mod_base = “2′-deoxy-2′-fluoro corresponding nucleoside”; modified_base 1,3,5,7,9,11,12,13,14,15,16,17,18,19,20,21 /mod_base = “2′-O-methyl corresponding nucleoside”; modified_base 2,3,20,21 /mod_base = “5′-phosphorothioate corresponding nucleotide”; Hif2alpha RNAi agent sense strand; modified_base 7,9 /mod_base = “2′-deoxy-2′-fluoro corresponding nucleoside”; modified_base 1,2,3,4,5,6,8,10,11,12,13,14,15,16,17,18,19 /mod_base = “2′-O-methyl corresponding nucleoside”; modified_base 20 /mod_base = “3′-3′-linked nucleotide”; modi)”, the “Relative Expression day 4 (Hif2α mRNA in kidney tumor)” value under setting [2] came to 0.283.

Regarding “AD01255 (antisense TUUCAUGAAAUCGUUACGUTT; sense UAUACGUAACGAUUUCAUGAAAT; Hif2alpha RNAi agent antisense strand; modified_base 2,4,6,8,10,12,14,16,18 /mod_base = “2′-deoxy-2′-fluoro corresponding nucleoside”; modified_base 3,5,7,9,11,13,15,17,19 /mod_base = “2′-O-methyl corresponding nucleoside”; modified_base 21 /mod_base = “5′-phosphorothioate corresponding nucleotide”; Hif2alpha RNAi agent sense strand; modified_base 2 modified base = “2′-hydroxy corresponding nucleoside”; modified_base 4,6,8,10,12,14,16,18,20,22 /mod_base = “2′-deoxy-2′-fluoro corresponding nucleoside”; modified_base 1,3,5,7,9,11,13,15,17,19,21 /mod_base = “2′-O-methyl correspondin g nucleosid)”, the “Relative Expression day 4 (Hif2α mRNA in kidney tumor)” value under setting [1] worked out at 0.28.

“AD01889 (antisense UCUAGCAACAAAACCUUAATT; sense UUAAGGUUUUGUUGCUAGAT; Hif2alpha RNAi agent antisense strand; modified_base 2,4,6,9,10,12,14,15,18 /mod_base = “2′-deoxy-2′-fluoro corresponding nucleoside”; modified_base 1,3,5,7,8,11,13,16,17,19 /mod_base = “2′-O-methyl corresponding nucleoside”; modified_base 2,3,21 /mod_base = “5′-phosphorothioate corresponding nucleotide”; Hif2alpha RNAi agent sense strand; modified_base 3,4,7,9,13,15,17 /mod_base = “2′-deoxy-2′-fluoro corresponding nucleoside”; modified_base 1,2,5,6,8,10,11,12,14,16,18,19 /mod_base = “2′-O-methyl corresponding nucleoside”; modified_base 20 /mod_base = “3′-3′-linked nucleotide”; modified_base)”: under setting [3], the “Relative Expression day 4 (Hif2α mRNA in kidney tumor)” value worked out at 0.282.

Turning to “AD02949 (antisense UUUCAUGAAAUCGUUACGUUG; sense ACGUAACGAUUUCAUGAAAT; Hif2alpha RNAi agent antisense strand; modified_base 2,4,6,8,10,14,16,18 /mod_base = “2′-deoxy-2′-fluoro corresponding nucleoside”; modified_base 1,3,5,7,9,11,12,13,15,17,19,20,21 /mod_base = “2′-O-methyl corresponding nucleoside”; modified_base 2,3,20,21 /mod_base = “5′-phosphorothioate corresponding nucleotide”; Hif2alpha RNAi agent sense strand; modified_base 7,9,13 /mod_base = “2′-deoxy-2′-fluoro corresponding nucleoside”; modified_base 1,2,3,4,5,6,8,10,11,12,14,15,16,17,18,19 /mod_base = “2′-O-methyl corresponding nucleoside”; modified_base 20 /mod_base = “3′-3′-linked nucleotide”; modi)”, the “Relative Expression day 4 (Hif2α mRNA in kidney tumor)” value under setting [4] is on record as 0.176.

For “AD03193 (antisense AGUAAAACAAUUGUGUACUUUAA; sense AAAGUACACAAUUGUUUUACT; Hif2alpha RNAi agent antisense strand; modified_base 2,4,6,8,14 /mod_base = “2′-deoxy-2′-fluoro corresponding nucleoside”; modified_base 1,3,5,7,9,10,11,12,13,15,16,17,18,19,20,21,22,23 /mod_base = “2′-O-methyl corresponding nucleoside”; modified_base 2,3,22,23 /mod_base = “5′-phosphorothioate corresponding nucleotide”; Hif2alpha RNAi agent sense strand; modified_base 9,10,11 /mod_base = “2′-deoxy-2′-fluoro corresponding nucleoside”; modified_base 1,2,3,4,5,6,7,8,12,13,14,15,16,17,18,19,20 /mod_base = “2′-O-methyl corresponding nucleoside”; modified_base 21 /mod_base = “3′-3′-linked nucleoti)”, under setting [4], the “Relative Expression day 4 (Hif2α mRNA in kidney tumor)” value is given as 0.275.

Consider “AD03192 (antisense AGUAAAACAAUUGUGUACUUUAA; sense AAAGUACACAAUUGUUUUACT; Hif2alpha RNAi agent antisense strand; modified_base 2,4,6,8,10,14,18 /mod_base = “2′-deoxy-2′-fluoro corresponding nucleoside”; modified_base 1,3,5,7,9,11,12,13,15,16,17,19,20,21,22,23 /mod_base = “2′-O-methyl corresponding nucleoside”; modified_base 2,3,22,23 /mod_base = “5′-phosphorothioate corresponding nucleotide”; Hif2alpha RNAi agent sense strand; modified_base 5,7,9,10,11,13,15 /mod_base = “2′-deoxy-2′-fluoro corresponding nucleoside”; modified_base 1,2,3,4,6,8,12,14,16,17,18,19,20 /mod_base = “2′-O-methyl corresponding nucleoside”; modified_base 21 /mod_base = “3′-3′-linked nucleoti)”, for which the “Relative Expression day 4 (Hif2α mRNA in kidney tumor)” value under setting [4] turned out to be 0.286.

On to “AD01890 (antisense UGUAAAACAAUUGUGUACUTT; sense AGUACACAAUUGUUUUACAT; Hif2alpha RNAi agent antisense strand; modified_base 2,4,6,8,10,13,14,16,18 /mod_base = “2′-deoxy-2′-fluoro corresponding nucleoside”; modified_base 1,3,5,7,9,11,12,15,17,19 /mod_base = “2′-O-methyl corresponding nucleoside”; modified_base 2,3,21 /mod_base = “5′-phosphorothioate corresponding nucleotide”; Hif2alpha RNAi agent sense strand; modified_base 1,3,5,8,9,11,13,15,17,19 /mod_base = “2′-deoxy-2′-fluoro corresponding nucleoside”; modified_base 2,4,6,7,10,12,14,16,18 /mod_base = “2′-O-methyl corresponding nucleoside”; modified_base 20 /mod_base = “3′-3′-linked nucleotide”; modified_base)”, for which the “Relative Expression day 4 (Hif2α mRNA in kidney tumor)” value under setting [3] stood at 0.256.

With “AD02695 (antisense UUUCAUGAAAUCGUUACGUUG; sense ACGUAACGAUUUCAUGAAAT; Hif2alpha RNAi agent antisense strand; modified_base 2,4,6,8,10,14,16,18 /mod_base = “2′-deoxy-2′-fluoro corresponding nucleoside”; modified_base 1,3,5,7,9,11,12,13,15,17,19,20,21 /mod_base = “2′-O-methyl corresponding nucleoside”; modified_base 2,3,20,21 /mod_base = “5′-phosphorothioate corresponding nucleotide”; Hif2alpha RNAi agent sense strand; modified_base 7,9,13 /mod_base = “2′-deoxy-2′-fluoro corresponding nucleoside”; modified_base 1,2,3,4,5,6,8,10,11,12,14,15,16,17,18,19 /mod_base = “2′-O-methyl corresponding nucleoside”; modified_base 20 /mod_base = “3′-3′-linked nucleotide”; modi)”, the “Relative Expression day 4 (Hif2α mRNA in kidney tumor)” value under setting [4] turned out to be 0.123; the “Relative Expression day 4 (Hif2α mRNA in kidney tumor)” value under setting [2] is 0.101 and 0.155.

These data come from US9976141B2, “Compositions and methods for inhibiting gene expression of Hif2alpha” (Arrowhead Madison Inc., priority 2015, dated 2018).
